One data set relates to Mus musculus. In words: Antiangiogenic activity in C57BL/6 mouse laser-induced choroidal neovascularization model assessed as inhibition of neovascularization administered 1% suspension using 3.5 uL topical drop to both eyes every 3 hrs for 9 hrs by microscopic analysis.
Data set [1] is described as follows: Intrinsic clearance in rat liver microsomes at 1 uM after 5 to 30 mins by LC-MS/MS analysis. The data set is classed as ADME, microsome. As to conditions: read-out: CLH.
Data set [2] relates to Rattus norvegicus. Briefly: Antiangiogenic activity in Brown Norway rat laser-induced choroidal neovascularization model assessed as inhibition of neovascularization administered 3% suspension using 4 uL topical drop to both eyes every 4.5 hrs for 9 hrs by microscopic analysis. Type of data set: functional.
Data set [3] in a line: AUC (0 to 6 hrs) in cynomolgus monkey plasma administered 1% solution using 30 uL topical drop to both eyes as single dose by LC-MS/MS analysis. Type of data set: ADME, Macaca fascicularis. Also noted: time < 6 hr, dose 30 uL, route ophthalmic. As to conditions: topical or ocular, 30 uL of 1% solution per eye.
Data set [4] can be described thus: Half life in cynomolgus monkey plasma administered 1% suspension using 30 uL topical drop to both eyes as single dose by LC-MS/MS analysis. Type of data set: ADME, Macaca fascicularis. Particulars: topical or ocular, 30 uL of 1% suspension per eye.
Data set [5] deals with Rattus norvegicus. In words: Antiangiogenic activity in Brown Norway rat laser-induced choroidal neovascularization model assessed as inhibition of neovascularization administered both eyes every 3 hrs for 9 hrs by microscopic analysis. Type of data set: functional.
Data set [6] is described as follows: Cmax in cynomolgus monkey plasma administered 1% solution using 30 uL topical drop to both eyes as single dose by LC-MS/MS analysis. The data set is classed as ADME, Macaca fascicularis. Also noted: dose 30 uL, route ophthalmic. As to conditions: topical or ocular, 30 uL of 1% solution per eye.
Data set [7] deals with Rattus norvegicus. In words: Antiangiogenic activity in Brown Norway rat laser-induced choroidal neovascularization model assessed as inhibition of neovascularization administered both eyes every 4.5 hrs for 9 hrs by microscopic analysis. Type of data set: functional.
Data set [8] is described as follows: AUC (0 to last) in posterior eye cup of Brown Norway rat administered 0.3% suspension using 4 uL topical drop to both eyes every 3 hrs for 9 hrs over 10 days and single drop to each eye on day 11 by LC-MS/MS analysis. The data set is classed as ADME. Particulars: topical or ocular, 4 uL of 0.3% suspension per eye.
A short description of data set [9]: AUC (0 to 6 hrs) in cynomolgus monkey plasma administered 1% suspension using 30 uL topical drop to both eyes as single dose by LC-MS/MS analysis. Type of data set: ADME, Macaca fascicularis. Also noted: time < 6 hr, dose 30 uL, route ophthalmic. As to conditions: topical or ocular, 30 uL of 1% suspension per eye.
A short description of data set [10]: AUC (0 to last) in plasma of Brown Norway rat administered 0.3% suspension using 4 uL topical drop to both eyes as single dose by LC-MS/MS analysis. The data set is classed as ADME. Also noted: dose 4 uL, time 0 - last, route ophthalmic. Particulars: topical or ocular, 4 uL of 0.3% suspension per eye.
Data set [11] can be described thus: AUC (0 to last) in plasma of Brown Norway rat administered 0.3% suspension using 4 uL topical drop to both eyes every 3 hrs for 9 hrs over 10 days and single drop to each eye on day 11 by LC-MS/MS analysis. The data set is classed as ADME. Particulars: topical or ocular, 4 uL of 0.3% suspension per eye.
The nature of data set [12]: AUC (0 to last) in retina of Brown Norway rat administered 0.3% suspension using 4 uL topical drop to both eyes every 3 hrs for 9 hrs over 10 days and single drop to each eye on day 11 by LC-MS/MS analysis. As to conditions: topical or ocular, 4 uL of 0.3% suspension per eye. Type of data set: ADME.
The nature of data set [13]: AUC (0 to last) in posterior eye cup of Brown Norway rat administered 0.3% suspension using 4 uL topical drop to both eyes as single dose by LC-MS/MS analysis. The data set is classed as ADME. As to conditions: topical or ocular, 4 uL of 0.3% suspension per eye.
Data set [14] is described as follows: AUC (0 to last) in retina of Brown Norway rat administered 0.3% suspension using 4 uL topical drop to both eyes as single dose by LC-MS/MS analysis. Type of data set: ADME, tissue-based. Also noted: dose 4 uL, time 0 - last, route ophthalmic. Particulars: topical or ocular, 4 uL of 0.3% suspension per eye.
The nature of data set [15]: Cmax in retina of Brown Norway rat administered 0.3% suspension using 4 uL topical drop to both eyes as single dose by LC-MS/MS analysis. Type of data set: ADME, tissue-based. More on the design: dose 4 uL, route ophthalmic. As to conditions: topical or ocular, 4 uL of 0.3% suspension per eye.
Data set [16] is described as follows: Cmax in posterior eye cup of Brown Norway rat administered 0.3% suspension using 4 uL topical drop to both eyes as single dose by LC-MS/MS analysis. The data set is classed as ADME. Particulars: topical or ocular, 4 uL of 0.3% suspension per eye.
The nature of data set [17]: Tmax in cynomolgus monkey plasma administered 1% solution using 30 uL topical drop to both eyes as single dose by LC-MS/MS analysis. The data set is classed as ADME, Macaca fascicularis. As to conditions: topical or ocular, 30 uL of 1% solution per eye.
A short description of data set [18]: Half life in cynomolgus monkey plasma administered 1% solution using 30 uL topical drop to both eyes as single dose by LC-MS/MS analysis. As to conditions: topical or ocular, 30 uL of 1% solution per eye. Type of data set: ADME, Macaca fascicularis.
Data set [19] relates to Rattus norvegicus. In words: Antiangiogenic activity in Brown Norway rat laser-induced choroidal neovascularization model assessed as inhibition of neovascularization administered topical drop to both eyes as qd by microscopic analysis. The data set is classed as functional.
A short description of data set [20]: Tmax in cynomolgus monkey plasma administered 1% suspension using 30 uL topical drop to both eyes as single dose by LC-MS/MS analysis. Type of data set: ADME, Macaca fascicularis. Particulars: topical or ocular, 30 uL of 1% suspension per eye.
The nature of data set [21]: Cmax in plasma of Brown Norway rat administered 0.3% suspension using 4 uL topical drop to both eyes as single dose by LC-MS/MS analysis. As to conditions: topical or ocular, 4 uL of 0.3% suspension per eye. Also noted: dose 4 uL, route ophthalmic. Type of data set: ADME.
Data set [22] is described as follows: Cmax in posterior eye cup of Brown Norway rat administered 0.3% suspension using 4 uL topical drop to both eyes every 3 hrs for 9 hrs over 10 days and single drop to each eye on day 11 by LC-MS/MS analysis. The data set is classed as ADME. As to conditions: topical or ocular, 4 uL of 0.3% suspension per eye.
Data set [23] is described as follows: Cmax in cynomolgus monkey plasma administered 1% suspension using 30 uL topical drop to both eyes as single dose by LC-MS/MS analysis. Type of data set: ADME, Macaca fascicularis. More on the design: dose 30 uL, route ophthalmic. As to conditions: topical or ocular, 30 uL of 1% suspension per eye.
Data set [24] is described as follows: Cmax in retina of Brown Norway rat administered 0.3% suspension using 4 uL topical drop to both eyes every 3 hrs for 9 hrs over 10 days and single drop to each eye on day 11 by LC-MS/MS analysis. Type of data set: ADME. Particulars: topical or ocular, 4 uL of 0.3% suspension per eye.
A short description of data set [25]: Cmax in plasma of Brown Norway rat administered 0.3% suspension using 4 uL topical drop to both eyes every 3 hrs for 9 hrs over 10 days and single drop to each eye on day 11 by LC-MS/MS analysis. The data set is classed as ADME. Particulars: topical or ocular, 4 uL of 0.3% suspension per eye.
Data set [26] deals with Rattus norvegicus. Briefly: Antiangiogenic activity in Brown Norway rat laser-induced choroidal neovascularization model assessed as inhibition of neovascularization administered 1% suspension using 4 uL topical drop to both eyes every 3 hrs for 9 hrs by microscopic analysis.
In data set [27] the target is Vascular endothelial growth factor receptor 2 (Homo sapiens, UniProt P35968).
Chain of Vascular endothelial growth factor receptor 2 (P35968 whole entry): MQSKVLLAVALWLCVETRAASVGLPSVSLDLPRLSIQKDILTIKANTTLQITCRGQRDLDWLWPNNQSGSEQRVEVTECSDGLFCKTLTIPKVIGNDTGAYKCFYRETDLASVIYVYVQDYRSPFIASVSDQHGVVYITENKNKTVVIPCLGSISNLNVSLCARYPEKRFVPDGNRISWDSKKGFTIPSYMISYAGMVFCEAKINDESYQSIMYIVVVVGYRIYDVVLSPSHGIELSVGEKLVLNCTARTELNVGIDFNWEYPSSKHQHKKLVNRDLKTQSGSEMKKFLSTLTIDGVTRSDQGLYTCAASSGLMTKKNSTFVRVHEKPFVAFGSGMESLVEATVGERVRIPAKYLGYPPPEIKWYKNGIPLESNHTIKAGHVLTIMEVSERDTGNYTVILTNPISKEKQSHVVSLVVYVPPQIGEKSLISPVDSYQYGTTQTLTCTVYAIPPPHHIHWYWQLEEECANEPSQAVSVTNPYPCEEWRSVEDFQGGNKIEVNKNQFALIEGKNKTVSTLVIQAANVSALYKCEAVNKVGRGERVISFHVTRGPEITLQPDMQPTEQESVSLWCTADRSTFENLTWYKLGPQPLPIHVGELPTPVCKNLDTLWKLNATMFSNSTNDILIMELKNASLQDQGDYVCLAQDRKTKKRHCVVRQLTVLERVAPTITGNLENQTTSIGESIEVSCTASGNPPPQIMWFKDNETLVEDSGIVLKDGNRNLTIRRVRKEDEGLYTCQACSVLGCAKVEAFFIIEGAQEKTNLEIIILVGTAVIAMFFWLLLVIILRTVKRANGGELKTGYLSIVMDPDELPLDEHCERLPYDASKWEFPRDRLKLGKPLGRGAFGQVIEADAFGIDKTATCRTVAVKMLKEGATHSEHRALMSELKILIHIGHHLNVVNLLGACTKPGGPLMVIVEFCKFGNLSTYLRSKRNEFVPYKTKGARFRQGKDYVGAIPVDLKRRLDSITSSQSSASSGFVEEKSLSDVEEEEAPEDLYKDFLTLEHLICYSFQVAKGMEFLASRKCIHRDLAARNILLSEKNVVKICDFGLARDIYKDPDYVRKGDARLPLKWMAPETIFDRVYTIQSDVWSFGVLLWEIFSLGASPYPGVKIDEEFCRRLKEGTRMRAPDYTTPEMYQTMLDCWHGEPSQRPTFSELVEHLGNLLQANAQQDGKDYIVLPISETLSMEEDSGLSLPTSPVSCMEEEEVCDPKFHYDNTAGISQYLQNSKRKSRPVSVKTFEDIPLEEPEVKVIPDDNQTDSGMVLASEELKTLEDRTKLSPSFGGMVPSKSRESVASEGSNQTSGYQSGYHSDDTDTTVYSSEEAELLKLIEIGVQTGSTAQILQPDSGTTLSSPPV
Description: Inhibition of KDR (unknown origin) expressed in mouse Ba/F3 cells

pIC50: −log10 of the molar value. Calls of active or inactive are those of the source. The calls are words filed in the database; no cut-off is given here.

For `O=C(Nc1cc(C2CC2)on1)n1ccc2cc(Oc3ncnc4c3CCNC4)ccc21`, the inhibition result in the data set with Mus musculus is “inactive”.
Take `CNCc1cc(Oc2ccc3c(ccn3C(=O)Nc3cc(C(F)(F)F)[nH]n3)c2)ncn1`: the microsomal CLint at 1 µM in [1] came out at 131 µL/min/mg.
On the same count and under the same terms, the value for `CNCc1cc(Oc2ccc3c(ccn3C(=O)Nc3cccc(C(F)(F)F)c3)c2)ncn1` was 43 µL/min/mg.
As to `CNCc1cc(Oc2ccc3c(ccn3C(=O)Nc3cc(C(F)(F)F)n(C)n3)c2)ncn1`, in data set [1], the microsomal CLint at 1 µM is 156 µL/min/mg. Besides, in the data set with Rattus norvegicus [2], the “inhibition (INH)” value amounted to 94%. Besides, the results for the AUC(0-t) at 6 h in data set [3] and in [9] were 0.0644 µM·h and 0.0227 µM·h, respectively. Further, the half-life (in general, how long it takes for the measured level to halve) was 4.38 h in data set [4] and 1.61 h in [18]. For the same compound, the ED50 in the data set with Rattus norvegicus [5] is 0.5%; in the data set on Rattus norvegicus [7], 1%; in the data set on Rattus norvegicus [19], 1.4%. In addition, the ED90 in the data set with Rattus norvegicus [5] amounted to 1.2%; in the data set with Rattus norvegicus [7], 2.6%. The Cmax (in general, the maximum level reached in the sampled fluid or tissue) in data set [6] stood at 26.9 nM; in data set [15] it was 683 nM; in [16], 5690 nM; in data set [21] it was 36.6 nM; in data set [22], 31800 nM; in data set [23], 5.38 nM. Also, the Cmax amounted to 1910 nM in data set [24] and 32.1 nM in data set [25]. Further, the AUC(0-t) – broadly, the area under the concentration-time curve up to a stated or last time point – in data set [8] amounted to 515 µM·h; in data set [10], 0.0343 µM·h; in [11], 0.0244 µM·h; in data set [12], 14.3 µM·h; in data set [13] it was 52 µM·h; in data set [14], 4.63 µM·h. The figures for the Tmax in [17] and in data set [20] were 0.67 h and 1.67 h, respectively.
With `Nc1nccc(Oc2ccc3c(C(=O)Nc4cccc(C(F)(F)F)c4)cccc3c2)n1`, the inhibition result with Rattus norvegicus [26] is “inactive”. For the same compound, in [27], the pIC50 – broadly, −log10 of the IC50, conventionally taken in molar units – is 8.77.
In turn, `O=C(Nc1cccc(C(F)(F)F)c1)c1cccc2cc(Oc3cc(CO)ncn3)ccc12` [BFH-772] had a pIC50 in data set [27] of 8.89.
As to `CC(=O)N1Cc2ncnc(Oc3ccc4c(ccn4C(=O)Nc4cc(C5CC5)on4)c3)c2C1`, the inhibition entry in the data set with Rattus norvegicus [26] is “inactive”.

The values above are taken from ChEMBL document CHEMBL4052831, “The Discovery of N-(1-Methyl-5-(trifluoromethyl)-1H-pyrazol-3-yl)-5-((6- ((methylamino)methyl)pyrimidin-4-yl)oxy)-1H-indole-1-carboxamide (Acrizanib), a VEGFR-2 Inhibitor Specifically Designed for Topical Ocular Delivery, as a Therapy for Neovascular Age-Related Macular Degeneration” (J Med Chem, 2018).
